Test results: patent publication US11549123B2, “Plant EPSP synthases and methods of use” (PIONEER HI-BRED INTERNATIONAL, INC., priority 2015, dated 2023)

Assays:
Format in all cases: biochemical
[1] = target: Zea mays EPSPS variant Zm-G102A (Zea mays, UniProt O24566, G101A); assay: Rapid two-rate method for (kcat/KM)*KI, Zm-G102A; settings: [E] 0.07 uM, [Gly] 1000 uM
Excerpt: (§1) There are several practical considerations for accurately estimating (kcat/KM)*KI with the rapid method. […] 2) The inhibitor concentration must be adjusted so as to obtain a degree of inhibition that minimally amplifies the error in the term v0-vi in Equation 3. If inhibition is too little, v0-vi will be small, and the error in the multiplier vi×v0/(v0-vi) will be large. […] 3) Substrate concentration should be set at the approximate KM of the parental variant(s), subject to the sensitivity of the assay. High substrate concentration obscures sensitivity to the inhibitor and reduces stringency for capturing improvements in KM. Depending on the necessity for speed, there exists opportunity for customizing enzyme and inhibitor concentrations. […] The rapid method was repeated for those and obtained data that correlated better with data obtained by substrate saturation analysis. For screening purposes however, that correlation step is not necessary. Conditions can be set so that variants with a pre-determined minimal fitness level are accurately quantified.
(§2) In Table 15, parameters above the heavy line for the rapid method were obtained under standard conditions. For variants shown below the heavy line, the rapid analysis was repeated with enzyme or glyphosate concentrations adjusted as needed to generate sufficient signal within the limits for linear initial rates.

[2] = target: T1, Zea mays EPSPS variant Zm-P107S (Zea mays, UniProt O24566, P106S); assay: Rapid two-rate method for (kcat/KM)*KI, Zm-P107S
T1 construct: native maize plus P107S; E. coli BL21(DE3), Ni-NTA purified
T1 sequence (O24566 with tags, fused parts or gaps P106S): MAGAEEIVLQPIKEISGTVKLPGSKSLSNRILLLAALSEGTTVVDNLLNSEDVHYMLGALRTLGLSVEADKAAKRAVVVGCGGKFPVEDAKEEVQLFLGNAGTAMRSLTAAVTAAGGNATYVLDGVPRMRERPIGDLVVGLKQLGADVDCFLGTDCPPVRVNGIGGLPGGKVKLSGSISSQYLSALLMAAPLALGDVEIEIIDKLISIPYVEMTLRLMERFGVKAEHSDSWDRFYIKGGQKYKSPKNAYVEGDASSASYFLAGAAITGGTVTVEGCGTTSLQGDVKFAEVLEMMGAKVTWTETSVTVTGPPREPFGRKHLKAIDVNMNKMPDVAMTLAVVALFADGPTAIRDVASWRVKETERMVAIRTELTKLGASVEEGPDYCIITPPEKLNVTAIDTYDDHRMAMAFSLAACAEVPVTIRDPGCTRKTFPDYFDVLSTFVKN
Excerpt: as §1, §2

[3] = target: T2, Zea mays EPSPS variant Zm-H6 (868-H6) with H54E (H6-H54E) (Zea mays, UniProt O24566, A1R/A3W/A415G/A71Q/D401G/E301S/E390G/G101A/H53E/I207L/K83R/L97C/T278A/T360S/T440Q/V437R); assay: Rapid two-rate method for (kcat/KM)*KI, H6-H54E; settings: [E] 0.07 uM, [Gly] 1000 uM
T2 construct: 868-H6 plus H54E; E. coli BL21(DE3), Ni-NTA purified
T2 sequence (O24566 with tags, fused parts or gaps A1R/A3W/H53E/A71Q/K83R/L97C/G101A/I207L/T278A/E301S/T360S/E390G/D401G/A415G/V437R/T440Q): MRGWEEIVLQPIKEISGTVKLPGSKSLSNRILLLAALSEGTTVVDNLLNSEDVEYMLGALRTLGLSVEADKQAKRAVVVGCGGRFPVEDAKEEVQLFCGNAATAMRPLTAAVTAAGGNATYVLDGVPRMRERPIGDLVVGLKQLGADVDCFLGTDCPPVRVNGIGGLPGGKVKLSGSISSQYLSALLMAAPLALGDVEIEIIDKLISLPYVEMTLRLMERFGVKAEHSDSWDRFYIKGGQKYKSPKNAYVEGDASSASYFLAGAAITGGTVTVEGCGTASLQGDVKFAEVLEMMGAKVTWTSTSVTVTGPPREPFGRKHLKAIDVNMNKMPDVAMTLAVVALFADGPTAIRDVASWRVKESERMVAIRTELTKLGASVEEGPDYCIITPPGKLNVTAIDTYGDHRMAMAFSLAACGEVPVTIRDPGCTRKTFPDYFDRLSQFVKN
Excerpt: as §1, §2

[4] = target: Zea mays EPSPS variant 123-C1 (A2R, A4W, K84R, L98C, G102A, I208L, K243E, E391P, D402G), SEQ ID NO:6 (Zea mays, UniProt O24566, A1R/A3W/D401G/E390P/G101A/I207L/K242E/K83R/L97C); assay: EPSPS substrate saturation kinetics, 123-C1
Zea mays EPSPS variant 123-C1 (A2R, A4W, K84R, L98C, G102A, I208L, K243E, E391P, D402G), SEQ ID NO:6, sequence (O24566 entry or part of it A1R/A3W/K83R/L97C/G101A/I207L/K242E/E390P/D401G): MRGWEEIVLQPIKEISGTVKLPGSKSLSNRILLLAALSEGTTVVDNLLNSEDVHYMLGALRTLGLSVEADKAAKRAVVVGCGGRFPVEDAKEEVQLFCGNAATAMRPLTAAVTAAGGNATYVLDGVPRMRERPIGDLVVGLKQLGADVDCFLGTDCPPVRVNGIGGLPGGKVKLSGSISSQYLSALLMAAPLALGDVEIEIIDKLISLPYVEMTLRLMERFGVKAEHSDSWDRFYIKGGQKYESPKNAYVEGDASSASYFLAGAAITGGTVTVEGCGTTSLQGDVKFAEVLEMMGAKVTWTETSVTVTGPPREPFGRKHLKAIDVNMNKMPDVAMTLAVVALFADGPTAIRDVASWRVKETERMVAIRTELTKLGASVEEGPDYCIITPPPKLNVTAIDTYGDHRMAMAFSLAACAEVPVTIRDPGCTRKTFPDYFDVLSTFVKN
Procedure: EPSPS activity was determined by quantifying the phosphate generated from the EPSPS reaction. Release of inorganic phosphate was coupled to reaction with 2-amino-6-mercapto-7-methylpurine ribonucleoside, catalyzed by purine-nucleoside phosphorylase (M R Webb, Proc. Natl. Acad. Sci. 89:4884-4887, 1992). The absorbance change that occurs was monitored at 360 nm, where the extinction is 11,200 M^−1 cm^−1, with a Spectramax plate reader (Molecular Devices). To determine kinetic parameters, the varied substrate was present at seven concentrations (the eighth being the blank, containing no substrate) ranging from 4 to 400 uM and the unvaried substrate present at saturation. […] Reactions were monitored with a Spectramax plate reader. […] KI was then calculated from the following form of the Michaelis-Menten equation for competitive inhibition: KI=KM[I]/(KM app−KM) KM approximates the dissociation constant of the enzyme-substrate complex while kcat is the rate of conversion of substrate to product when the substrate concentration is saturating. kcat/KM is a widely accepted parameter for catalytic efficiency when substrate concentration is low (˜KM). […] The parameter kcat/KM×KI is used to quantify both catalytic efficiency and insensitivity and thus the overall fitness of the enzyme. […]

Zea mays EPSPS variant Zm-G102A, sequence (O24566 entry or part of it G101A): as the sequence (O24566 entry or part of it A1R/A3W/K83R/L97C/G101A/I207L/K242E/E390P/D401G) above, with R2A, W4A, R84K, C98L, L208I, E243K, P391E, G402D counted along it

## O=C(O)CNCP(=O)(O)O [glyphosate, N-phosphonomethylglycine]
[1]
  (kcat/KM)*KI: 3596
[2]; rapid method repeated, [E] 0.007 uM, [Gly] 5 uM
  (kcat/KM)*KI: 40
[2]; rapid method, [E] 0.07 uM, [Gly] 1000 uM
  (kcat/KM)*KI: 72
[3]
  (kcat/KM)*KI: 4529
[4]
  Ki: 559 µM
[4]; PEP as substrate, glyphosate as inhibitor
  (kcat/KM)*KI: 10100
